Reference: the supplement of paper PMC11451515

System: NOMO1
Test: cell viability relative to DMSO control; higher = less cytotoxic
Conditions: 48 h
Summary of the method: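 NOMO1, SEM and P12-Ichikawa leukemia cells spent at least four passages adapting to each medium before use. They were seeded at 500 cells/well (NOMO1, SEM) or 1000 cells/well (P12-Ichikawa) in 5 μl in 1536-well plates and pin-dosed with library compounds in DMSO at 11 threefold steps from 47 μM down to 0.79 nM. After 48 h at 37°C, CellTiter-Glo One luminescence was read. Viability is reported as a percentage of the DMSO wells on each plate, with cell-free wells as background.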

[1] = HPLM + 10% dialyzed FBS, 0.000781 µM
[2] = HPLM + 10% dialyzed FBS, 0.00234 µM
[3] = HPLM + 10% dialyzed FBS, 0.00702 µM
[4] = HPLM + 10% dialyzed FBS, 0.0211 µM
[5] = HPLM + 10% dialyzed FBS, 0.0632 µM
[6] = HPLM + 10% dialyzed FBS, 0.19 µM
[7] = HPLM + 10% dialyzed FBS, 0.569 µM
[8] = HPLM + 10% dialyzed FBS, 1.71 µM
[9] = HPLM + 10% dialyzed FBS, 5.12 µM
[10] = HPLM + 10% dialyzed FBS, 15.4 µM
[11] = HPLM + 10% dialyzed FBS, 46.1 µM
[12] = RPMI 5 mM glucose + 10% FBS, 0.000781 µM
[13] = RPMI 5 mM glucose + 10% FBS, 0.00234 µM
[14] = RPMI 5 mM glucose + 10% FBS, 0.00702 µM
[15] = RPMI 5 mM glucose + 10% FBS, 0.0211 µM
[16] = RPMI 5 mM glucose + 10% FBS, 0.0632 µM
[17] = RPMI 5 mM glucose + 10% FBS, 0.19 µM
[18] = RPMI 5 mM glucose + 10% FBS, 0.569 µM
[19] = RPMI 5 mM glucose + 10% FBS, 1.71 µM
[20] = RPMI 5 mM glucose + 10% FBS, 5.12 µM
[21] = RPMI 5 mM glucose + 10% FBS, 15.4 µM
[22] = RPMI 5 mM glucose + 10% FBS, 46.1 µM
[23] = RPMI 5 mM glucose + 10% dialyzed FBS, 0.000781 µM
[24] = RPMI 5 mM glucose + 10% dialyzed FBS, 0.00234 µM
[25] = RPMI 5 mM glucose + 10% dialyzed FBS, 0.00702 µM
[26] = RPMI 5 mM glucose + 10% dialyzed FBS, 0.0211 µM
[27] = RPMI 5 mM glucose + 10% dialyzed FBS, 0.0632 µM
[28] = RPMI 5 mM glucose + 10% dialyzed FBS, 0.19 µM
[29] = RPMI 5 mM glucose + 10% dialyzed FBS, 0.569 µM
[30] = RPMI 5 mM glucose + 10% dialyzed FBS, 1.71 µM
[31] = RPMI 5 mM glucose + 10% dialyzed FBS, 5.12 µM
[32] = RPMI 5 mM glucose + 10% dialyzed FBS, 15.4 µM
[33] = RPMI 5 mM glucose + 10% dialyzed FBS, 46.1 µM

| SMILES | cell viability [1] [%] | cell viability [2] [%] | cell viability [3] [%] | cell viability [4] [%] | cell viability [5] [%] | cell viability [6] [%] | cell viability [7] [%] | cell viability [8] [%] | cell viability [9] [%] | cell viability [10] [%] | cell viability [11] [%] | cell viability [12] [%] | cell viability [13] [%] | cell viability [14] [%] | cell viability [15] [%] | cell viability [16] [%] | cell viability [17] [%] | cell viability [18] [%] | cell viability [19] [%] | cell viability [20] [%] | cell viability [21] [%] | cell viability [22] [%] | cell viability [23] [%] | cell viability [24] [%] | cell viability [25] [%] | cell viability [26] [%] | cell viability [27] [%] | cell viability [28] [%] | cell viability [29] [%] | cell viability [30] [%] | cell viability [31] [%] | cell viability [32] [%] | cell viability [33] [%] |
| --- | --- | --- | --- | --- | --- | --- | --- | --- | --- | --- | --- | --- | --- | --- | --- | --- | --- | --- | --- | --- | --- | --- | --- | --- | --- | --- | --- | --- | --- | --- | --- | --- | --- |
| CNc1nccc(-c2cccnc2Oc2cc(C(=O)Nc3cccc(C(F)(F)F)c3)ccc2C)n1 | 104 | 111 | 120 | 135 | 130 | 147 | 127 | 117 | 115 | 82.7 | 110 | 115 | 102 | 112 | 125 | 120 | 133 | 130 | 119 | 112 | 87.7 | 98.2 | 98 | 105 | 108 | 116 | 108 | 134 | 105 | 125 | 125 | 78.2 | 99.1 |
| O=C(NC[C@H](O)CO)c1ccncc1Nc1ccc(I)cc1F | 94.7 | 98.5 | 90 | 93 | 82.2 | 60.9 | 53.2 | 56 | 49.2 | 38.6 | 40.4 | 103 | 101 | 111 | 90.8 | 65.2 | 61.7 | 52.6 | 51.6 | 47.6 | 37.9 | 6.49 | 88.3 | 96.1 | 93.6 | 81.1 | 72.2 | 61.9 | 52 | 49.1 | 41.6 | 38.9 | 39.3 |
| C=CC(=O)N1CCC[C@@H](n2nc(-c3ccc(Oc4ccccc4)cc3)c3c(N)ncnc32)C1 | – | – | – | – | – | – | – | – | – | – | – | 117 | 117 | 113 | 101 | 110 | 99.2 | 110 | 107 | 132 | 108 | 121 | 122 | 123 | 113 | 102 | 119 | 113 | 118 | 117 | 120 | 129 | 95.9 |
| CC(C)CC(=O)N[C@H](C(=O)N[C@H](C(=O)N[C@@H](CC(C)C)[C@@H](O)CC(=O)N[C@@H](C)C(=O)N[C@@H](CC(C)C)[C@@H](O)CC(=O)O)C(C)C)C(C)C | 107 | 96.3 | 120 | 106 | 112 | 117 | 118 | 108 | 119 | 124 | 119 | 105 | 119 | 94.4 | 107 | 102 | 114 | 99.8 | 108 | 93.1 | 97.8 | 90.3 | 91.6 | 98.4 | 111 | 115 | 104 | 110 | 112 | 113 | 116 | 107 | 105 |
| C/C=C1\C2C=C(C)CC1(N)c1ccc(=O)[nH]c1C2 (centres undefined) | 107 | 117 | 113 | 114 | 109 | 104 | 117 | 106 | 110 | 95.1 | 79.4 | 94.6 | 96.4 | 99.2 | 115 | 96.3 | 93.7 | 102 | 105 | 102 | 91 | 90.8 | 90.4 | 103 | 96.7 | 103 | 108 | 96.1 | 94.1 | 99.9 | 95 | 98.8 | 81 |
| S=P(N1CC1)(N1CC1)N1CC1 | 107 | 105 | 99 | 104 | 98.5 | 98.6 | 110 | 97.3 | 92.4 | 104 | 62.6 | 92.8 | 102 | 95.7 | 96.4 | 103 | 95.7 | 92.7 | 95.5 | 101 | 90.2 | 89.8 | 101 | 105 | 95.4 | 91.4 | 104 | 99.6 | 116 | 98.7 | 95.5 | 98.3 | 92.4 |
| Cc1c(C(=O)NN2CCCCC2)nn(-c2ccc(Cl)cc2Cl)c1-c1ccc(Cl)cc1 | – | – | – | – | – | – | – | – | – | – | – | – | – | – | – | – | – | – | – | – | – | – | 122 | 120 | 125 | 143 | 128 | 138 | 76.3 | 46.8 | 32.8 | 28.1 | 36 |
| CC(C)C[C@@H](C=O)NC(=O)[C@H](CC(C)C)NC(=O)[C@H](CC(C)C)NC(=O)OCc1ccccc1 | – | – | – | – | – | – | – | – | – | – | – | 115 | 119 | 130 | 143 | 134 | 128 | 78.1 | 42.1 | 10.2 | 8.45 | 7.38 | – | – | – | – | – | – | – | – | – | – | – |
| CNC1CCC(N(Cc2cccc(-c3ccncc3)c2)C(=O)c2sc3c(F)ccc(F)c3c2Cl)CC1 (centres undefined) | 92.9 | 111 | 121 | 123 | 127 | 106 | 111 | 113 | 100 | 97.8 | 36.5 | 95.3 | 108 | 100 | 106 | 118 | 105 | 117 | 105 | 99 | 104 | 81 | 87 | 99.2 | 104 | 115 | 112 | 99.7 | 110 | 100 | 100 | 108 | 57.4 |
| CN1CCCN=C1/C=C/c1cccs1.O=C(O)c1cc2ccccc2c(Cc2c(O)c(C(=O)O)cc3ccccc23)c1O | 114 | 111 | 126 | 108 | 122 | 112 | 123 | 120 | 104 | 34.1 | 17.2 | 115 | 121 | 129 | 112 | 114 | 111 | 117 | 137 | 109 | 92.7 | 29.3 | 120 | 127 | 114 | 104 | 110 | 110 | 119 | 110 | 110 | 64.4 | 28.9 |
| COc1cc2c(cc1OC)CC(=O)N(CCCN(C)C[C@H]1Cc3cc(OC)c(OC)cc31)CC2.Cl | 126 | 115 | 107 | 122 | 97.1 | 111 | 122 | 112 | 114 | 115 | 109 | 104 | 105 | 99.2 | 106 | 100 | 102 | 102 | 99.6 | 105 | 97.5 | 95.3 | 111 | 114 | 130 | 115 | 113 | 106 | 92.6 | 110 | 110 | 93 | 100 |
| CNC(=O)c1ccc(N2C(=S)N(c3ccc(C#N)c(C(F)(F)F)c3)C(=O)C23CCC3)cc1F | 90.5 | 90.2 | 91.7 | 33.3 | 95.1 | 105 | 103 | 107 | 92.6 | 93.2 | 111 | 80.5 | 88.3 | 83.6 | 18.9 | 98.9 | 88 | 92 | 86.6 | 96 | 88.4 | 99.1 | 84.9 | 93.1 | 108 | 34.6 | 100 | 90.6 | 95.2 | 93.1 | 95.6 | 91.7 | 103 |
| COc1cc2nccc(Oc3ccc(NC(=O)NC4CC4)c(Cl)c3)c2cc1C(N)=O | 129 | 120 | 111 | 98.7 | 145 | 100 | 114 | 113 | 111 | 78.1 | 17.2 | – | – | – | – | – | – | – | – | – | – | – | – | – | – | – | – | – | – | – | – | – | – |
| O=C(c1ccc(Nc2nccc(-c3cc4ccccc4s3)n2)cc1)N1CCC(N2CCCC2)CC1 | 122 | 132 | 125 | 125 | 124 | 114 | 105 | 95.3 | 104 | 41.8 | 1.51 | 113 | 126 | 107 | 110 | 106 | 119 | 118 | 101 | 96.2 | 91.3 | 2.67 | 122 | 129 | 115 | 114 | 124 | 106 | 120 | 121 | 95 | 80.2 | 2.88 |
| Cc1cn(-c2cc(NC(=O)c3ccc(C)c(Nc4nccc(-c5cccnc5)n4)c3)cc(C(F)(F)F)c2)cn1 | 100 | 122 | 123 | 135 | 130 | 117 | 103 | 88.8 | 95.3 | 95.2 | 114 | 99.7 | 111 | 115 | 127 | 113 | 131 | 117 | 66.5 | 61.3 | 74.2 | 68.4 | 102 | 109 | 107 | 106 | 114 | 114 | 111 | 86.8 | 67.2 | 66.3 | 62.9 |
| O=C(Nc1c(Cl)cncc1Cl)c1ccc(OC(F)F)c(OCC2CC2)c1 | 108 | 126 | 111 | 97.5 | 123 | 105 | 130 | 124 | 109 | 98.5 | 100 | 94.4 | 102 | 101 | 99.1 | 108 | 106 | 120 | 107 | 102 | 103 | 99.7 | 94.5 | 106 | 112 | 101 | 107 | 112 | 106 | 114 | 97.8 | 99.6 | 102 |
| O=C(Nc1cc2cc[nH]c2cn1)c1ccccc1 | 97.5 | 116 | 94.4 | 122 | 108 | 102 | 123 | 103 | 21 | 4.39 | 0.639 | 95.6 | 101 | 97.2 | 110 | 100 | 108 | 99.4 | 88.4 | 54.6 | 18.9 | 2.79 | 96.6 | 104 | 102 | 98.5 | 103 | 105 | 105 | 94 | 59.1 | 45.9 | 7.31 |
